# In patent US20170055529A1, “BROAD SPECTRUM WEED CONTROL IN FLOODED RICE BY IN-WATER APPLICATION OF AUXIN HERBICIDES” (priority 2015, published 2017):
# Like-named read-outs stand apart in the source and are kept apart here.
# Tests used:
# Format in all cases: in vivo
# rice = experiment: In-water application, crop safety (summary statement)
# [1] = system: barnyardgrass (Echinochloa crus-galli), small-flower flatsedge (Cyperus difformis), Japanese bulrush (Schoenoplectus juncoides) and monochoria (Monochoria …); experiment: In-water application, weed efficacy (summary statement); conditions: application rate of about 35 to about 280 g ae/ha
# [2] = system: ORYSP = Oryza sativa (transplanted paddy rice); experiment: Greenhouse in-water application (large pots), crop injury
# Experimental: (§1) Weed seeds or nutlets of the desired test plant species were planted in puddled soil (mud) prepared by mixing shredded topsoil and deionized (DI) water in a 1:1 ratio in a standard cement mixer. […] Osmocote® (17:6:10 N:P:K; 0.5 teaspoon) was added to the bottom of a container. The container is a high-density polyethylene (HDPE) round container (4.163 L (1.1 gallon), 15 cm high×20.55 cm diameter; for treatment purposes, the surface area is calculated as 331 cm^2 with 1 hectare equivalent to 10^8 cm^2). The mud mixture (2,750 mL) was added to the container filling it half full. Stakes were placed horizontally in each container to create separate areas for which to plant each different plant species. Water was added on a regular basis to maintain the paddy flood, and supplemental lighting was provided with overhead metal halide 1000-Watt lamps as necessary.
# (§2) Once the plants had reached the proper size (the growth stage of the various species ranged from 2 to 4 leaves), the containers were flooded with city water to a depth of 3 cm submerging the plants 80-100%. The outside of each container was measured and marked at a 3-cm line with a black permanent marker to eliminate water level variability during the trial period. Water was added daily to maintain this water depth. Triclopyr triethylammonium (as Garlon® 3 A, 360 g ae/L); triclopyr butoxyethyl ester (as Garlon® 4, 480 g ae/L); fluroxypyr methylheptyl ester (meptyl or MHE, as Starane® Ultra, 333 g ae/L); fluroxypyr acid (850 grams acid equivalent per kilogram (g ae/kg)); 2,4-dichlorophenoxyacetic acid dimethylammonium (2,4-D DMA, as Weedar® 64 EC, 456 g ae/L); 2,4-dichlorophenoxyacetic acid 2-ethylhexyl ester (2,4-D 2-EHE, as Agri Star®, 456 g ae/L); clopyralid olamine (as Stinger®, 360 g ae/L); and penoxsulam (as Grasp® SC, 240 g ai/L) were used. Each herbicide treatment for each pot was mixed in water (80 mL) and applied directly into the paddy water at rates adjusted to the surface area. The dry formulations were pre-weighed based on the rate of the active ingredient to be applied on a per unit area basis, placed in 30 mL vials, and capped. Granules were spread onto the top of the water in each pot and dispersed throughout the water. Treatments were replicated 3 times.
# (§3) The treated plants and control plants were placed in a greenhouse as described above and water was added as needed to maintain a flood depth of 3 cm. […]
# [3] = system: CYPDI = Cyperus difformis (small-flower flatsedge); experiment: Greenhouse in-water herbicidal activity (large pots); conditions: Cyperus difformis, 744 h, read-out: Percent (%) Visual Injury Ratings - 31 DAA, CYPDI
# Experimental: as §1, §2, §3
# [4] = system: ECHCG = Echinochloa crus-galli (barnyardgrass); experiment: as above; conditions: 744 h, read-out: Percent (%) Visual Injury Ratings - 31 DAA, ECHCG
# Experimental: as §1, §2, §3
# [5] = system: MOOVA = Monochoria vaginalis (monochoria); experiment: as above; conditions: Pontederia vaginalis, 744 h, read-out: Percent (%) Visual Injury Ratings - 31 DAA, MOOVA
# Experimental: as §1, §2, §3
# [6] = system: ECHCG = Echinochloa crus-galli (barnyardgrass); experiment: Greenhouse in-water herbicidal activity (small pots); conditions: 35 g ae/ha (as headed) in-water
# Excerpt: (§4) Weed seeds of the desired test plant species were planted in puddled soil (mud) prepared by mixing a non-sterilized mineral soil (approximately 50 percent silt, 26 percent clay, and 24 percent sand, with a pH of about 7.6 and an organic matter content of about 2.9 percent) and water at a 1:1 volumetric ratio. The prepared mud was dispensed in 365 milliliter (mL) aliquots into 16-ounce (oz.) non-perforated plastic pots with a surface area of 86.59 square centimeters (cm^2) leaving a headspace of 3 centimeters (cm) in each pot. Mud was allowed to dry overnight prior to planting or transplanting. Rice seeds were planted in Sun Gro® MetroMix® 360 planting mixture, which typically has a pH of 6.0 to 6.8 and an organic matter content of about 30 percent, in plastic plug trays. Seedlings at the second or third leaf stage of growth were transplanted into 840 mL of mud contained in 32-oz. non-perforated plastic pots with a surface area of 86.59 cm^2 four days prior to herbicide application. The paddy was created by filling the headspace of the pots with 2.5 to 3 cm of water. When required to ensure good germination and healthy plants, a fungicide treatment and/or other chemical or physical treatment was applied. The plants were grown for 4-22 days (d) in a greenhouse with an approximate 14-hour (h) photoperiod which was maintained at about 29° C. during the day and 26° C. during the night. Nutrients were added as Osmocote® (19:6:12, Nitrogen:Phosphorus:Potassium (N:P:K)+minor nutrients) at 2 g per 16 oz. pot and 4 g per 32 oz. pot. Water was added on a regular basis to maintain the paddy flood, and supplemental lighting was provided with overhead metal halide 1000-Watt lamps as necessary. The plants were used for testing when they reached the second or third true leaf stage.
# (§5) Triclopyr triethylammonium (as Grandstand® R, 359.5 grams acid equivalent per liter (g ae/L)); fluroxypyr methylheptyl ester (meptyl or MHE, as Starane™, 179.8 g ae/L); 2,4-dichlorophenoxyacetic acid dimethylammonium (2,4-D DMA, as Weedar® 64, 455.4 g ae/L); and penoxsulam (as Grasp® SC, 239.7 grams active ingredient per liter (g ai/L) were used. Measured amounts of formulated compounds were placed in individual 120 mL glass vials and were dissolved in 40 mL of an aqueous mixture containing 1.25% volume per volume (v/v) Agri-Dex® crop oil concentrate. Generally, multiple concentrations were tested utilizing the same stock solution. Applications were made by injecting an appropriate amount of the application solution into the aqueous layer of the paddy. Control plants were treated in the same manner with the solvent blank.
# (§6) The treated plants and control plants were placed in a greenhouse as described above and water was added as needed to maintain a paddy flood. After approximately 3 weeks the condition of the test plants, compared with that of the untreated plants, was determined visually and scored on a scale of 0 to 100 percent where 0 corresponds to no injury or growth reduction and 100 corresponds to complete kill.
# [7] = system: CYDPI = Cyperus difformis (small-flower flatsedge); experiment: as above; conditions: 35 g ae/ha (as headed) in-water
# Excerpt: as §4, §5, §6
# [8] = system: SCPJU = Schoenoplectus juncoides (Japanese bulrush); experiment: as above; conditions: 35 g ae/ha (as headed) in-water
# Excerpt: as §4, §5, §6
# [9] = system: MOOVA = Monochoria vaginalis (monochoria); experiment: as above; conditions: 35 g ae/ha (as headed) in-water
# Excerpt: as §4, §5, §6
# [10] = application rates of less than or equal to 280 g ae/ha
# [11] = 280 g ae/ha in-water, greenhouse large pots, 31 DAA
# [12] = 560 g ae/ha in-water, greenhouse large pots, 31 DAA
# [13] = 1120 g ae/ha in-water, greenhouse large pots, 31 DAA
# [14] = 35 g ai/ha in-water, greenhouse large pots, 31 DAA
SMILES,crop safety exhibited by rice (rice; [10]),efficacy on several commercially relevant weeds [1],"pest or weed control at 280 g/ha [3, 11] [%]","pest or weed control at 1120 g/ha [3, 13] [%]","pest or weed control at 280 g/ha [4, 11] [%]","pest or weed control at 560 g/ha [4, 12] [%]","pest or weed control at 1120 g/ha [4, 13] [%]","pest or weed control at 280 g/ha [5, 11] [%]","pest or weed control at 1120 g/ha [5, 13] [%]",other results
"O=C(O)c1nc(Cl)ccc1Cl [clopyralid, 3,6-dichloro-2-pyridinecarboxylic acid]",little to no crop injury,highly efficacious,,,,,,,,
"CCCCOCCOC(=O)COc1nc(Cl)c(Cl)cc1Cl [Triclopyr butoxyethyl ester (Garlon ® 4), 2-butoxyethyl 2[(3,5,6-trichloro-2-pyridinyl)oxy]acetate]",,,100,100,60,78,95,100,100,"Percent (%) Visual Injury Ratings - 31 DAA, ORYSP ([2]; 280 g ae/ha in-water): 3%; Percent (%) Visual Injury Ratings - 31 DAA, ORYSP ([2]; 560 g ae/ha in-water): 22%; Percent (%) Visual Injury Ratings - 31 DAA, ORYSP ([2]; 1120 g ae/ha in-water): 72%; pest or weed control at 560 g/ha [3, 12]: 100%; pest or weed control at 560 g/ha [5, 12]: 100%"
"COc1cnc(OC)n2nc(NS(=O)(=O)c3c(OCC(F)F)cccc3C(F)(F)F)nc12 [Penoxsulam (Grasp ® SC), penoxsulam]",,,,,,,,,,"Percent (%) Visual Injury Ratings - 20 DAA, ECHCG [6]: 99%; Percent (%) Visual Injury Ratings - 20 DAA, CYDPI [7]: 100%; Percent (%) Visual Injury Ratings - 20 DAA, SCPJU [8]: 100%; Percent (%) Visual Injury Ratings - 20 DAA, MOOVA [9]: 99%; pest or weed control at 35 g/ha [3, 14]: 99%; pest or weed control at 35 g/ha [4, 14]: 100%; pest or weed control at 35 g/ha [5, 14]: 100%"
"CCCCC(CC)COC(=O)COc1ccc(Cl)cc1Cl (stereo not shown) [2,4-D 2-ethylhexyl ester (Agri Star ®)]",,,100,100,35,65,87,100,100,"pest or weed control at 560 g/ha [3, 12]: 100%; pest or weed control at 560 g/ha [5, 12]: 100%"
"Nc1c(Cl)c(F)nc(OCC(=O)O)c1Cl [Fluroxypyr acid, 2-[(4-amino-3,5-dichloro-6-fluoro-2-pyridinyl)oxy]-acetic acid]",,highly efficacious,100,100,27,28,45,98,100,crop safety exhibited by rice (rice; in vivo): little to no crop injury
"O=C(O)COc1nc(Cl)c(Cl)cc1Cl [triclopyr, 2-[(3,5,6-trichloro-2-pyridinyl)oxy]acetic acid]",little to no crop injury,highly efficacious,,,,,,,,
"O=C(O)c1nc(Cl)ccc1Cl [Clopyralid olamine (Stinger ®), 2-hydroxyethanaminium 3,6-dichloro-2-pyridinecarboxylate]",,,,,,,,,,"Percent (%) Visual Injury Ratings - 31 DAA, ORYSP ([2]; 280 g ae/ha in-water): 0%; Percent (%) Visual Injury Ratings - 31 DAA, ORYSP ([2]; 560 g ae/ha in-water): 0%; Percent (%) Visual Injury Ratings - 31 DAA, ORYSP ([2]; 1120 g ae/ha in-water): 0%; pest or weed control at 280 g/ha [3]: 7%; pest or weed control at 560 g/ha [3]: 53%; pest or weed control at 1120 g/ha [3]: 59%; pest or weed control at 280 g/ha [4]: 17%; pest or weed control at 560 g/ha [4]: 4%; pest or weed control at 1120 g/ha [4]: 5%; pest or weed control at 280 g/ha [5]: 10%; pest or weed control at 560 g/ha [5]: 18%; pest or weed control at 1120 g/ha [5]: 23%"
"O=C(O)COc1ccc(Cl)cc1Cl [2,4-D, (2,4-dichlorophenoxy)acetic acid]",little to no crop injury,highly efficacious,,,,,,,,
